Data on 17 compounds can be found in US20200308162A1, “DRUGS AND COMPOSITIONS FOR OCULAR DELIVERY” (Graybug Vision, Inc., priority 2017, published 2020).

Data set [1] is described as follows: Drug solubility in water, DMSO and DCM (HPLC of filtered supernatant). The settings on record: for solubility: thermodynamic from solid; for Solubility Water: 50 mg/mL target concentration.
Protocol: For each test, approximately 5-10 mg was transferred to a 10 mL glass vial. Aqueous or organic solvent was added to each vial to achieve an overall concentration of 50 mg/mL. After vortexing aggressively for 2-3 minutes and sonicating in a bath sonicator for 5 minutes, undissolved drug was spun down at 1200 rpm for 5 minutes to generate a pellet. The supernatant was collected and filtered through a 0.2 μm nylon syringe filter into HPLC vials for drug content analysis. Drug concentration was determined by comparing against a standard calibration curve.
Data set [2] in a line: In vitro stability of ethacrynic acid prodrugs at 37° C. The class given is physicochemical. The text has this:
As evidenced, both prodrugs of ethacrynic acid degrade steadily over the 6 day period. As the ester linkages are hydrolyzed, the parent compound is generated in a linear rate. The rate of degradation to the parent compound is faster for the shorter […] in comparison to the degradation kinetics for ethacrynic acid-PLA(n=4)-ethyl ester (1).
Approximately 94% of the ECA-PLA(n=4) prodrug (1) has been converted to free ECA by day 6, in comparison to only 56% for ECA-PLA(n=6) (25). Also, by day 6, all the initial prodrug has been degraded into intermediates and free drug respectively.

Data set [3] can be described thus: In vitro drug release kinetics of Timolol prodrug microparticles in PBS and 1% Tween 20 (pH 7.4) at 37° C. The class given is physicochemical. The settings on record: PBS and 1% Tween 20 (pH 7.4), 37° C. The procedure:
In vitro drug release kinetics were evaluated in a release medium composed of PBS and 1% Tween 20 (pH 7.4). Briefly, 10 mg of particles was suspended in 4 mL of the release medium The particle suspension was incubated on an orbital shaker at 150 rpm at 37° C. At various time points, 3 mL of release media was collected, and the suspension was replenished with 3 mL of fresh release media. Collected release samples were frozen and stored at −80° C. until analysis for drug content. The collected samples were filtered through a 0.2 μm syringe filter and analyzed by RP-HPLC. FIG. 17-FIG. 22 illustrate the total and parent Timolol release profile for the microparticles encapsulating bis-prodrugs of Timolol of Table 11.

Data set [4] is described as follows: Drug release kinetics of Timolol and ethacrynic acid prodrugs from polymer microparticles. The format is physicochemical. The settings on record: microparticles; 78/22(PLA 5A/PLGA8515 4.5A) and 65/20/15(PLA 4A/PLGA6515 4.5A/PLGA5050 4A) polymer blends; FIG. 5. The procedure: The effect of polymer composition including monomer ratio and molecular weight, polymer end-groups (ester or acid), inherent viscosity and polymer blend ratios on particle degradation and drug release kinetics of Timolol-O-ethyl fumurate (17) was evaluated and is illustrated in FIG. 5. The rate of particle degradation was slowed and drug release was prolonged when the mole % of DL-lactide over glycolide was increased. By incorporating polymers with different monomer ratios (i.e., PLA, PLGA8515, PLGA525, PLGA5050 wherein 8515 refers to 85% DL-lactide and 15% glycolide) into the particles, it is possible to fine-tune the degradation rate of the particles to achieve a linear rate of drug release from the particles to minimize burst or lag and to extend the duration of release. […] The 78/22(PLA 5A/PLGA8515 4.5A) and 65/20/15(PLA 4A/PLGA6515 4.5A/PLGA5050 4A) polymer blends generated ideal particles for a 3-6 month linear release formulation. […] The rate of release was independent of the salt form. […] Thus, release rate is not solely dictated by the physicochemical properties of the linker, but rather must be attributed to a combination of parameters that may include linker type and site of linker conjugation.
FIG. 6 illustrates the release kinetics of ethacrynic acid-PLA(n=4)-ethyl ester (1) from PLGA microparticles. The drug was released over a period of approximately 66 days.
FIG. 8 and FIG. 9 illustrate the release kinetics of ethacrynic acid-PLA(n=4)-ethyl ester (1) and ethacrynic acid-PLA(n=6)-ethyl ester (25), respectively, from PLGA microparticles. The drug was released from a number of formulations over a period of greater than 90 days. […] Particles generated with 1% PVA in PBS was compared against particles generated in 1% PVA in water (FIG. 10).
Based upon these initial formulation screens, the formulation comprising of 1% mPEG-PLGA and 99% PLA100 4.5A:PLGA8515 5A (77:22) was selected as the lead formulation for ECA-PLA(n=4) (1) and ECA-PLA(n=6) (25) prodrugs. The particles were prepared in 1% PVA in water. The release profiles for the lead ECA-PLA(n=4) (1) and ECA-PLA(=6) (25) particle formulations are illustrated in FIG. 11.

[5] abbreviates: DMSO, organic solvent or mixture.
Setting [6] is: DCM, organic solvent or mixture.

“Also recorded” adds a separate entry of the source. Structures can show the parent of a compound that is named as a salt.

Usually solubility stands for the dissolved amount per volume that the medium holds. Take `CC(C)(C)NC[C@@H](COc1nsnc1N1CCOCC1)OC(=O)/C=C\C(=O)O` [Compound 7, Timolol-O-Maleate]: the solubility in data set [1] (setting [5]) and in data set [1] (water) was above 50 mg/mL each time.

Regarding `C=C(CC)C(=O)c1ccc(OCC(=O)O[C@@H](C)C(=O)O[C@@H](C)C(=O)O[C@@H](C)C(=O)O[C@@H](C)C(=O)O[C@@H](C)C(=O)O[C@@H](C)C(=O)O[C@@H](C)C(=O)O[C@@H](C)C(=O)OCC)c(Cl)c1Cl` [Compound 26], the results for the solubility in data set [1] (setting [5]) and in data set [1] (water) were above 50 mg/mL and below 0.1 mg/mL, respectively.

In the case of `C=C(CC)C(=O)c1ccc(OCC(=O)O[C@@H](C)C(=O)O[C@@H](C)C(=O)OCC)c(Cl)c1Cl` [Compound 2, 2-{2-[2,3-Dichloro-4-(2-methylene-butyryl)-phenoxy]-acetoxy}-propionic acid 1-ethoxycarbonyl-ethyl ester], in data set [2] (37° C. over 6 days), the “generation of parent ethacrynic acid as ester linkages are hydrolyzed” value was “generated at a linear rate”. Further, in data set [2] (37° C., 6 days, comparison between prodrugs), the “rate of degradation to the parent compound / conversion to the free drug” value is “degraded faster; also recorded: significantly faster”. In addition, the solubility in data set [1] (setting [5]) is above 50 mg/mL; in data set [1] (water), below 1 mg/mL.

For the compound `CCOC(=O)/C=C\C(=O)OC(CNC(C)(C)C)COc1nsnc1N1CCOCC1` (stereo not shown) [Compound 18, Timolol-O-Ethyl Maleate], the solubility in data set [1] (setting [5]) was above 100 mg/mL; in data set [1] (water), above 25 mg/mL.

As for `CC(C)(C)NC[C@@H](COc1nsnc1N1CCOCC1)OC(=O)CCC(=O)O` [Compound 4, Succinic acid mono-[(S)-1-(tert-butylamino-methyl)-2-(4-morpholin-4-yl-[1,2,5]thiadiazol-3-yloxy)-ethyl] ester], the solubility in data set [1] (setting [5]) and in data set [1] (water) was above 50 mg/mL each time.

Take “Timolol-Bis-Acetyl PLA (n = 4) [Compound 54]”: the “parent Timolol released relative to total release of prodrug and intermediates” value in data set [3] was “significantly less”.

Turning to `CCCCCCCCCCCCOC(=O)/C=C/C(=O)O[C@@H](CNC(C)(C)C)COc1nsnc1N1CCOCC1` [Compound 12, Timolol-O-Laurylfumurate-Maleate], the solubility in data set [1] (setting [5]) was above 100 mg/mL; in data set [1] (water) it was below 1 mg/mL.

Turning to `CCOC(=O)/C=C\C(=O)O[C@@H](CNC(C)(C)C)COc1nsnc1N1CCOCC1.O=C(O)/C=C\C(=O)O` [Compound 8, Timolol-O-Ethylmaleate-Maleic Acid], the solubility in data set [1] (setting [5]) is above 50 mg/mL; in data set [1] (water), below 1 mg/mL.

In the case of `CCOC(=O)/C=C/C(=O)O[C@@H](CNC(C)(C)C)COc1nsnc1N1CCOCC1` [Compound 17, Timolol-O-Ethylfumurate], in data set [4], the linear release profile was 3-6 month. Besides, the solubility in data set [1] (setting [5]) was above 50 mg/mL; in data set [1] (water), below 1 mg/mL. The “Solubility Water” value in data set [1] (water) is recorded as below 1.0 mg/mL.

`CCN[C@H]1C[C@H](C)S(=O)(=O)c2sc(S(N)(=O)=O)cc21` [Dorzolamide, reference compound]: the solubility in data set [1] (setting [6]) was below 1 mg/mL; in data set [1] (setting [5]), below 1 mg/mL; in data set [1] (water), above 50 mg/mL.

As to `CC(=O)OC(C)C(=O)OC(C)C(=O)OC(C)C(=O)OC(C)C(=O)N(C[C@@H](COc1nsnc1N1CCOCC1)OC(=O)C(C)OC(=O)C(C)OC(C)=O)C(C)(C)C` (stereo partly shown) [Compound 55, Timolol-Bis-N-Acetyl-PLA (n = 4)-O-Acetyl PLA (n = 2)], in data set [3], the “parent Timolol released relative to total release of prodrug and intermediates” value is “significantly less”.

Take `CCOC(=O)CCC(=O)O[C@@H](CNC(C)(C)C)COc1nsnc1N1CCOCC1.Cl` [Compound 6, Timolol-O-Ethylsuccinate HCL]: the solubility in data set [1] (setting [5]) is above 50 mg/mL; in data set [1] (water) it was 6.25 mg/mL.

Regarding “Dorzolamide-Stearylfumurate [Compound 15]”, the “Solubility DMSO” value in data set [1] (DMSO) was above 100 mg/mL. Further, in data set [1] (water), the “Solubility Water” value is given as above 50 mg/mL.

Turning to `CCOC(=O)CCC(=O)O[C@@H](CNC(C)(C)C)COc1nsnc1N1CCOCC1.O=C(O)/C=C\C(=O)O` [Compound 5, Timolol-O-Ethylsuccinate Maleate], the solubility was above 50 mg/mL in data set [1] (setting [5]) and 12.5 mg/mL in data set [1] (water).

As to `CC(=O)OC(C)C(=O)OC(C)C(=O)OC(C)C(=O)OC(C)C(=O)O[C@H](COc1nsnc1N1CCOCC1)CN(C(=O)C(C)OC(=O)C(C)OC(C)=O)C(C)(C)C` (stereo partly shown) [Compound 56, Timolol-Bis-N-Acetyl-PLA (n = 2)-O-Acetyl-PLA (n = 4)], in data set [3], the “parent Timolol released relative to total release of prodrug and intermediates” value is listed as “significantly less”.

Dorzolamide-Laurylmaleate [Compound 16]: the “Solubility DMSO” value in data set [1] (DMSO) is above 50 mg/mL. The “Solubility Water” value in data set [1] (water) is recorded as below 1.0 mg/mL.

For `CCN[C@H]1C[C@H](C)S(=O)(=O)c2sc(S(=O)(=O)NC(=O)/C=C/C(=O)OCC)cc21` [Compound 14, Dorzolamide-Ethylfumurate], the solubility in data set [1] (setting [6]) was above 100 mg/mL; in data set [1] (setting [5]) it was above 100 mg/mL; in data set [1] (water), below 1 mg/mL.
